How the values were obtained:
[1] = system: R223X stop codon in the mutated luciferase gene, ADXC8 luciferase reporter cell line; experiment: cells; type: cell-based; conditions: 24 h, ADXC8 cells, 24 hours; for Emax: read-out: Fold Over Control, maximum fold response relative to 200 μM G418; for EC (100% of 200 uM G418 response): read-out: pC100%, negative logarithm of the concentration giving the same response as 200 μM G418
[2] = system: R213X mutation in the p53 gene, HDQ-P1 cells; experiment: Read-through of R213X mutation in HDQ-P1 cells: truncated and full-length p53 by automated capillary electrophoresis western analysis; type: cell-based; conditions: Homo sapiens; for EC (50% of 200 uM G418 response): pC50% NMD: production of truncated p53, concentration giving 50% of the response of 200 μM G418, 24 h; for EC (100% of 200 uM G418 response): pC100% RT: production of full-length p53, concentration giving the same response as 200 μM G418, 24 h

Compound	Emax [1]	EC (100% of 200 uM G418 response) [1]	EC (50% of 200 uM G418 response) [2]	EC (100% of 200 uM G418 response) [2]
Cc1c2c(nc3nc(NC4CCN(Cc5ccccc5)CC4)nc(N)c13)CCC2 [Example 229, N^2-(1-benzylpiperidin-4-yl)-5-methyl-7,8-dihydro-6H-cyclopenta[5,6]pyrido[2,3-d]pyrimidine-2,4-diamine]	100 to 3000%	0.01 to 0.1 µM	0.1 to 1 µM	0.1 to 1 µM
CNc1nc(N[C@H]2CN(C)C[C@@H]2O)nc2nc3c(c(C)c12)CCC3 [Example 232, (3S,4S)-1-methyl-4-((5-methyl-4-(methylamino)-7,8-dihydro-6H-cyclopenta[5,6]pyrido[2,3-d]pyrimidin-2-yl)amino)pyrrolidin-3-ol]	100 to 3000%	0.1 to 1 µM	0.1 to 1 µM	0.1 to 1 µM

From patent US20260234144A1 (TAY THERAPEUTICS LIMITED, priority 2023, published 2026)
